Laboratory results as given in patent publication US8859587B2, “(2E)-3-phenyl-N-[2,2,2-Trifluoro-1-[[8-quinolineamino)thiomethyl]amino]ethyl]-2-acrylamide and pharmaceutical uses thereof” (Chinese PLA General Hospital, priority 2010, dated 2014).

Key:
elF2α and P-elF2α = test: Western blot of elF2α and P-elF2α expression; format: cell-based, Wistar rats; conditions: 1, 2, 5, 10, 20, 40 μM for 48 h
Description: (§1) (12000 rpm×10 min), collected supernatant. Nitrocellulose membrane was dipped in a transferring buffer for 15-20 min in advance. Sampled in 50 μg protein/lane, subjected to 10% polyacrylamide gel SDS-PAGE electrophoretic separation, the gel was then tiled in electrotransferring clamp, in which sponge, filter paper, gel, nitrocellulose membrane, filter paper and sponge were mounted from negative electrode to positive electrode in order. Constant current 350 mA, electrotransferred for 45 min. Electrotransferring membrane to […], the nitrocellulose membrane was taken out, the membrane was washed with TBST for 2 min, sealed with 5% defatted milk powder at room temperature for 1 h, added with first antibody (1:1000) and incubated at 4° C. overnight, the membrane was washed with TBST, 3 times×5 min, then […] second antibody was added, incubated at room temperature for 1 h, washed with TBST, 3 times×5 min, soaked separately with TSM1 and TSM2 for 5 min and 10 min, developed with chromogenic substrates 6.6 μl NBT and 3.3 μl BCIP dissolved in 1 ml of TSM2, after bonds become clear, the reaction was terminated by washing with water. After the end of development, the records were stored by scanning or taking photos.

[1] = test system: caspase-12 and cleaved caspase-12; test: Western blot of caspase-12 and cleaved caspase-12 in TM-induced cardiac muscle cells; format: cell-based, Wistar rats
Description: as §1

[2] = test system: cardiac muscle cells under anoxia; test: Cardiomyocyte apoptosis induced by anoxia, high connotation screening (HCS Reader); format: cell-based, Wistar rats; conditions: for Filament strength (actin filament) / Nucleus area / Nucleus strength / Short/long axis ratio of filament / cell count increase in comparison with the anoxia group / light flux / Cell count / Transmembrane potential (mitochondrial): anoxia 16 h; for Cell count / Transmembrane potential (mitochondrial): relative to control group = 1
Description: neonate Wistar rats, rat age: within 24 h, male and female
cardiac muscle cells were separated and cultured by referring to the method of differential adhesion, Wistar neonate […] newborn within 24 h were used, sterilized at skin of ventrum with iodine tincture and ethanol, subjected to thoracotomy using scissors at subxiphoid median line with a deviation to left, heart was taken out after slant thoracotomy and placed in PBS precooled with ice; the heart was softly blown and beaten with 0.01M PBS to remove blood cells and other tissues, then cut into pieces with 0.5 mm^3 size, washed with 0.01M PBS repeatedly for 2-3 times; the pieces were placed in conical flask, added with 4 ml of 0.125% pancretin, 1 ml of 0.1% collagenase II (final concentrations separately being 0.1% and 0.02%), shaken in 37° C. water bath for 10 min, the supernatant was discarded; then 4 ml of 0.125% pancretin and 1 ml of 0.1% collagenase II again, shaken in 37° C. water bath for digestion for 10 min, the supernatant was sucked and transferred to a centrifuge tube, and the supernatant was added with DMEM containing 10% FBS to terminate digestion; the step of shaking and digestion in water bath was repeated for 3-4 times, until the tissue pieces were completely digested; the collected cell suspension was centrifuged under 1000 rpm for 10 min, the supernatant was removed, then a culture medium was added for resuspension; the resuspended cells were inoculated in a cell culture flask, placed in CO2 incubator at 37° C. for incubation for 1.5 h, then the culture medium was sucked out, countered under microscope, then DMEM culture medium containing 10% FBS was used to adjust cell density, inoculated in an amount of 1×10^4 to a 96-well plate, placed in 5% CO2 incubator at 37° C. for 24 h, then half medium was replaced, a culture medium containing 0.1% Brdu was supplementally added; then the medium was replaced once per 48 h, and primary cardiac muscle cells were obtained after 4 days of cultivation.
1. The separated cardiac muscle cells were inoculated to a 96-wells plate, 10^4 cells per well, and the volume of each well was 100 μl (marginal wells were filled with sterile PBS). After being cultivated in 5% CO2 and 37° C. incubator for 4 d, Formula I was separated added at different concentrations (5 μM, 10 μM, 20 μM) and treated for 30 min, then placed in a sealed 37° C. anoxia incubator (O2/CO2, 5:95) and continuously incubated for 16 h, and at the same time, anoxia control wells and the normal control wells were set and cultivated in 5% CO2, 37° C. incubator for 16 h.
2. It was 30 min before the anoxia incubation was finished, each well was supplemented with 50 μl of culture medium and 50 μl of Mitotracker/Hoechst solution, and the cells were continuously incubated at 37° C. for 30 min.
3. 100 μl of the fixing solution was preheated to 37° C. and separately added to each culture well, without sucking out culture medium, and incubation was performed under ventilation at room temperature for 10 min.
4. The solution of each well was sucked out (the plate could be struck), washed with 1× Wash Buffer (100 uL/well) once. Carefulness was kept during operation and washing procedure, and slow sucking and adding liquid to maintain cell adhesion and integrity.
5. Wash Buffer was sucked out, 1× penetrating buffer solution (100 uL/well) was added, incubated at room temperature for 15 min.
6. The penetrating buffer solution in each well was sucked out, washed once with 100 μL/well of 1× Wash Buffer.
7. The Wash Buffer in each well was sucked out (the plate could be struck), each well was added with 50 μl of Alexa Fluor 488 Phalloidin Solution, incubated at room temperature in dark for 30 min.
8. The Alexa Fluor 488 Phalloidin solution in each well was sucked out, washed with 1× Wash Buffer (100 μl/well) twice, and added with 1× Wash Buffer (100 μl/well).
9. The edge of plate was covered with a sealing membrane (for prevention of drying), and assayed with HCS Reader. […]

[3] = test system: apoptosis stimulation irrelevant to endocytoplasmic reticulum stress; test: Protection against apoptosis stimulation irrelevant to endocytoplasmic reticulum stress; format: cell-based

## O=C(/C=C/c1ccccc1)NC(NC(=S)Nc1cccc2cccnc12)C(Cl)(Cl)Cl (stereo not drawn) [Compound of Formula I, (2E)-3-phenyl-N-[2,2,2-trichloro-1-[[(8-quinolylamino)thiomethyl]amino]ethyl]-2-acrylamide]
elF2α and P-elF2α
  expression level of P-elF2α: gradually increases with the increase of the concentration
  expression levels of elF2α: no significant change
[1]; 10, 20, 40 μM + TM 5 μg/ml
  expression of Cleaved caspase-12: gradually decreases with the increase of the concentration
[1]; different concentrations for 24 h
  Caspase-12 expression: no significant change
[2]; 5 μM
  Filament strength (actin filament): 498.03 ± 76.67
  Nucleus area: 109.90 ± 3.97
  Nucleus strength: 124.90 ± 2.25
  Short/long axis ratio of filament: 0.75 ± 0.02
  cell count increase in comparison with the anoxia group: 17.06%
  light flux: 1201.92 ± 29.95
  Cell count: 88.57% ± 7.64%
  Transmembrane potential (mitochondrial): 96.69% ± 5.06%
[2]; 10 μM
  Filament strength (actin filament): 503.64 ± 49.23
  Nucleus area: 107.43 ± 7.77
  Nucleus strength: 123.21 ± 2.71
  Short/long axis ratio of filament: 0.74 ± 0.01
  cell count increase in comparison with the anoxia group: 26.52%
  light flux: 1166.12 ± 91.06
  Cell count: 98.03% ± 16.24
  Transmembrane potential (mitochondrial): 97.19% ± 2.82^
[2]; 20 μM
  Filament strength (actin filament): 471.83 ± 69.38
  Nucleus area: 111.90 ± 10.76
  Nucleus strength: 121.40 ± 2.24
  Short/long axis ratio of filament: 0.74 ± 0.02
  cell count increase in comparison with the anoxia group: 30.22%
  light flux: 1214.09 ± 107.59
  Cell count: 101.73% ± 22.42%
  Transmembrane potential (mitochondrial): 99.40% ± 2.80%
[2]; highly anoxia condition
  effect on indexes of cardiac muscle cells under anoxia (nucleus area, nucleus strength, light flux, actin filament, transmembrane potential, cell count): significantly improve the above indexes
[3]
  protection against apoptosis stimulation irrelevant to endocytoplasmic reticulum stress: does not protect apoptosis stimulation irrelevant to endocytoplasmic reticulum stress
